Data as given in the NIST ThermoML archive (doi:10.1021/acs.jced.6b00577).

Conditions: Liquid, Frequency=8 MHz, Pulse-echo method

CCCC [butane]
Conditions | speed of sound [m/s]
199.99 K, 40128 kPa | 1640.8
199.99 K, 45132 kPa | 1662
199.99 K, 50136 kPa | 1682.6
200 K, 1101.4 kPa | 1447.8
200 K, 2102.1 kPa | 1453.5
200 K, 3102.8 kPa | 1459.2
200 K, 4103.5 kPa | 1464.9
200 K, 5104.2 kPa | 1470.5
200 K, 6105.1 kPa | 1476
200 K, 7105.9 kPa | 1481.5
200 K, 8106.6 kPa | 1487
200 K, 9107.3 kPa | 1492.4
200 K, 10108 kPa | 1497.8
200 K, 12610 kPa | 1510.9
200 K, 15112 kPa | 1523.8
200 K, 17613 kPa | 1536.5
200 K, 20115 kPa | 1548.9
200 K, 25119 kPa | 1573.1
200 K, 30123 kPa | 1596.4
200 K, 35126 kPa | 1619
200 K, 60143 kPa | 1722.2
200 K, 70150 kPa | 1759.8
200 K, 80157 kPa | 1795.8
200 K, 90164 kPa | 1830.2
200 K, 100171 kPa | 1863.2
201 K, 250.62 kPa | 1437.2
201 K, 600.55 kPa | 1439.2
201 K, 1100.5 kPa | 1442.1
201 K, 1101.5 kPa | 1442.2
201 K, 2101.9 kPa | 1448
201 K, 2102 kPa | 1448
201 K, 3102.6 kPa | 1453.7
201 K, 4103.4 kPa | 1459.4
201 K, 5104 kPa | 1465
220 K, 249.98 kPa | 1330.5
220 K, 599.68 kPa | 1332.8
220 K, 1100.7 kPa | 1336.1
220 K, 1100.8 kPa | 1336.1
220 K, 2101.6 kPa | 1342.7
220 K, 2101.8 kPa | 1342.7
220 K, 2102.1 kPa | 1342.7
220 K, 2103.4 kPa | 1342.6
220 K, 3102.3 kPa | 1349.1
220 K, 3104.1 kPa | 1349.1
220 K, 4103 kPa | 1355.5
220 K, 4104.7 kPa | 1355.5
220 K, 5103.6 kPa | 1361.9
220 K, 6104.2 kPa | 1368.2
220 K, 7104.9 kPa | 1374.3
220 K, 8105.5 kPa | 1380.5
220 K, 9106.2 kPa | 1386.6
220 K, 10107 kPa | 1392.6
220 K, 12609 kPa | 1407.3
220 K, 15111 kPa | 1421.8
220 K, 17612 kPa | 1435.8
220 K, 20114 kPa | 1449.6
220 K, 25118 kPa | 1476.2
220 K, 30121 kPa | 1501.8
220 K, 35125 kPa | 1526.5
220 K, 40129 kPa | 1550.3
220 K, 45133 kPa | 1573.3
220 K, 50136 kPa | 1595.6
220 K, 60144 kPa | 1638.2
220 K, 70151 kPa | 1678.5
220 K, 80158 kPa | 1716.8
220 K, 90165 kPa | 1753.2
220 K, 100172 kPa | 1788.2
240 K, 252.21 kPa | 1219.3
240 K, 602.15 kPa | 1222
240 K, 1103 kPa | 1225.8
240 K, 2103.5 kPa | 1233.3
240 K, 2104.3 kPa | 1233.3
240 K, 3104.1 kPa | 1240.7
240 K, 3105.1 kPa | 1240.7
240 K, 4104.7 kPa | 1248
240 K, 4105.9 kPa | 1248
240 K, 5105.3 kPa | 1255.2
240 K, 5106.6 kPa | 1255.2
240 K, 6107.3 kPa | 1262.3
240 K, 7108.1 kPa | 1269.3
240 K, 8108.8 kPa | 1276.2
240 K, 9109.5 kPa | 1283.1
240 K, 10110 kPa | 1289.8
240 K, 12612 kPa | 1306.4
240 K, 15113 kPa | 1322.5
240 K, 17615 kPa | 1338.1
240 K, 20116 kPa | 1353.3
240 K, 25120 kPa | 1382.7
240 K, 30123 kPa | 1410.7
240 K, 35127 kPa | 1437.6
240 K, 40130 kPa | 1463.4
240 K, 45134 kPa | 1488.2
240 K, 50138 kPa | 1512.2
240 K, 60145 kPa | 1557.8
240 K, 70152 kPa | 1600.8
240 K, 80158 kPa | 1641.4
240 K, 90165 kPa | 1680
240 K, 100172 kPa | 1716.9
259.99 K, 12610 kPa | 1208.1
259.99 K, 80158 kPa | 1569.8
259.99 K, 90165 kPa | 1610.4
260 K, 251.45 kPa | 1109.1
260 K, 601.45 kPa | 1112.2
260 K, 1102.2 kPa | 1116.6
260 K, 2102.8 kPa | 1125.3
260 K, 2103.1 kPa | 1125.3
260 K, 3103.4 kPa | 1133.8
260 K, 3103.8 kPa | 1133.8
260 K, 4104.1 kPa | 1142.1
260 K, 4104.5 kPa | 1142.2
260 K, 5104.7 kPa | 1150.3
260 K, 5105.2 kPa | 1150.4
260 K, 6105.9 kPa | 1158.5
260 K, 7106.5 kPa | 1166.4
260 K, 8107.2 kPa | 1174.3
260 K, 9108 kPa | 1182
260 K, 10108 kPa | 1189.6
260 K, 15112 kPa | 1226
260 K, 17613 kPa | 1243.4
260 K, 20115 kPa | 1260.3
260 K, 25119 kPa | 1292.5
260 K, 30122 kPa | 1323.2
260 K, 35126 kPa | 1352.3
260 K, 40129 kPa | 1380.2
260 K, 45133 kPa | 1406.9
260 K, 50136 kPa | 1432.6
260 K, 60144 kPa | 1481.3
260 K, 70151 kPa | 1526.8
260 K, 100172 kPa | 1649
280 K, 250.96 kPa | 999.47
280 K, 601 kPa | 1003.1
280 K, 1101.7 kPa | 1008.2
280 K, 2102.4 kPa | 1018.3
280 K, 3103 kPa | 1028.1
280 K, 3103.1 kPa | 1028.2
280 K, 4103.6 kPa | 1037.8
280 K, 4103.9 kPa | 1037.8
280 K, 5104.1 kPa | 1047.2
280 K, 5104.6 kPa | 1047.2
280 K, 6105.4 kPa | 1056.5
280 K, 7106.1 kPa | 1065.6
280 K, 8106.8 kPa | 1074.5
280 K, 9107.5 kPa | 1083.2
280 K, 10108 kPa | 1091.8
280 K, 12610 kPa | 1112.6
280 K, 15112 kPa | 1132.7
280 K, 17613 kPa | 1151.9
280 K, 20115 kPa | 1170.5
280 K, 25118 kPa | 1206
280 K, 30122 kPa | 1239.3
280 K, 35125 kPa | 1270.9
280 K, 40128 kPa | 1300.9
280 K, 45132 kPa | 1329.5
280 K, 50135 kPa | 1357
280 K, 60142 kPa | 1408.7
280 K, 70149 kPa | 1456.8
280 K, 80159 kPa | 1502
280 K, 90166 kPa | 1544.6
280 K, 100173 kPa | 1584.9
299.99 K, 80158 kPa | 1438.2
299.99 K, 90165 kPa | 1482.7
299.99 K, 100172 kPa | 1524.7
300 K, 599.94 kPa | 893.83
300 K, 2102 kPa | 911.89
300 K, 2104.2 kPa | 911.91
300 K, 3102.8 kPa | 923.46
300 K, 3104.9 kPa | 923.48
300 K, 4103.6 kPa | 934.71
300 K, 4105.7 kPa | 934.73
300 K, 5104.4 kPa | 945.67
300 K, 5105.9 kPa | 945.68
300 K, 6106.5 kPa | 956.35
300 K, 7107.2 kPa | 966.78
300 K, 8107.8 kPa | 976.95
300 K, 9108.4 kPa | 986.91
300 K, 10109 kPa | 996.68
300 K, 12610 kPa | 1020.2
300 K, 15112 kPa | 1042.6
300 K, 17614 kPa | 1064
300 K, 20115 kPa | 1084.5
300 K, 25118 kPa | 1123.3
300 K, 30122 kPa | 1159.6
300 K, 35125 kPa | 1193.6
300 K, 40129 kPa | 1225.8
300 K, 45132 kPa | 1256.4
300 K, 50136 kPa | 1285.6
300 K, 60143 kPa | 1340.3
300 K, 70150 kPa | 1390.9
300.01 K, 1100.4 kPa | 899.93
320 K, 601.27 kPa | 783.22
